# From patent publication US6787549B2, “Citrate salt of 5,8,14-triazatetracyclo[10.3.1.02,11.04,9]-hexadeca-2(11),3,5,7,9-pentaene and pharmaceutical compositions thereof” (Pfizer Inc., priority 2001, dated 2004)
# Where a name gives a salt, the structure may show the parent alone.
# Tests used:
# Type in all cases: physicochemical
# [1] = hygroscopicity on exposure to 90% relative humidity in a moisture chamber
# From the text: (§1) Although in general the acid addition salts of 5,8,14-triazatetracyclo[10.3.1.0^2,11.0^4,9]-hexadeca-2(11),3,5,7,9-pentaene are all crystalline, the majority of those salts are so hygroscopic as to render them poor candidates for pharmaceutical formulation use. The citrate salt exists as a hydrate under ambient conditions, where as noted above, hydrate refers to a water content of between 1 and 5% water by weight in the crystal. […] The citrate salt hydrate Form A has been prepared under different conditions: […]
# [2] = native pH in aqueous solution
# [3] = water loss of Form A on drying (low humidity, elevated temperature)
# Method: Under low humidity and elevated temperature, Form A will lose water depending on the macroscopic crystalline form. Unmilled samples of Form A may be dried in a 45° C. vacuum oven for several days without significant water loss (<1% water loss). […] Under conditions of low humidity and heat, Form A will dehydrate completely or nearly so to form a distinct pseudomorph which maintains a crystalline lattice, referred to herein as Form B. Form B contains between 0 and 1% water by weight.
# Form B of the citrate salt of 5,8,14-triazatetracyclo[10.3.1.0^2,11.0^4,9]-hexadeca-2(11),3,5,7,9-pentaene can also be prepared by drying the citrate salt hydrate of 5,8,14-triazatetracyclo[10.3.1.0^2,11.0^4,9]-hexadeca-2(11),3,5,7,9-pentaene. A number of means for drying the water from the crystal lattice may be employed. Form B may be prepared by reducing the particle size of Form A, via any technique known to those of skill in the art, including jet milling, mechanical milling, etc., and drying the reduce particle size citrate salt Form A under conditions sufficient to remove the water in the lattice. […] Vacuum drying at temperatures in the range of 20 to 60° C. will yield Form B in the course of 30 minutes to 10 hours.
# [4] = inertness towards common formulation excipients
# aqueous solubility = assay: aqueous solubility
# [5] = solid state stability (light, elevated temperature, high humidity challenges); conditions: in light, elevated temperatures and high humidity challenges
# From the text: as §1
smiles,measurement,setting,value
"c1cnc2cc3c(cc2n1)C1CNCC3C1 [Form A, Citrate Salt Hydrate of 5,8,14-Triazatetracyclo[10.3.1.0^2,11.0^4,9]-Hexadeca-2(11),3,5,7,9-Pentaene (Form A)]",hygroscopicity (in words),[1],only slightly hygroscopic
same,hygroscopicity,[1]; at 90% relative humidity,approximately 0.6%
same,hygroscopicity,[1]; exposure to 90% relative humidity in a moisture chamber,approximately 0.6 % wt/wt
same,native pH in aqueous solution,[2],3.7
same,water loss and regain (in words),"[3]; micronized samples, as humidity and temperature are varied",readily lose and regain water
same,time until water loss is seen,"[3]; particle size reduced, at 45° C.",less than 1 hour
same,water loss,"[3]; unmilled samples, 45° C. vacuum oven for several days",< 1%
same,inertness towards common excipients used in pharmaceutical formulation,[4],relative inertness towards common excipients
same,aqueous solubility (in words),aqueous solubility,high aqueous solubility
same,aqueous solubility,aqueous solubility; listed as citrate hydrate salt,110 mg/mL
same,solubility,aqueous solubility; water,> 100 mg/mL
same,solid state stability,[5],excellent solid state stability
